The target in one experiment is T1, HIV RT (Human immunodeficiency virus type 1 group M subtype B, UniProt P03366).
T1 construct: HIV RT polymerase was purchased from GE Healthcare; purchased GE Healthcare (Amersham Bioscience)
The experiment is described as follows: Primer extension by HIV RT (P1/T3, P1/T5). As to conditions: one hour, 500 μM. The class given is biochemical, HIV-1. The method, then: (§1) A typical single nucleotide incorporation and primer extension assays using HIV RT polymerase was carried out similar to one described in the literature. HIV RT polymerase was purchased from GE Healthcare and was supplied as either 12 or 30 U/μL stock solution. The final concentration of HIV RT in a reaction mixture was 0.03-0.003 U/μL. A primer/template duplex mixture was prepared by combining appropriate amounts of a 5′-^33P-labeled primer (P1) and a template in 1:2 molar ratio to provide a 4× solution with 0.5 μM primer concentration. The polymerase reactions were carried out in a 5×RT buffer containing 250 mM TRIS.HCL, 250 mM KCl, 50 mM MgCl2, 2.5 mM spermidine, 50 mM DTT, pH 8.3. For the single nucleotide incorporation assay, a P1/T1 primer-template pair was used whereas the primer extension study was performed with P1/T3 and P1/T5 primer-template pairs.
Primer extension study with HIV RT and Therminator DNA polymerase was performed in a fashion similar to the single nucleotide incorporation experiments. Two sets of primer/template complexes were used: P1/T3 and P1/T5.

The target of experiment [1] is T2, HIV reverse transcriptase (HIV RT) (Human immunodeficiency virus type 1 group M subtype B, UniProt P03366).
T2 construct: HIV RT polymerase was purchased from GE Healthcare; purchased GE Healthcare (Amersham Bioscience)
Nature of the experiment: Single nucleotide incorporation by HIV RT, gel-based, P1/T1 (Examples 2-3). The class given is biochemical, HIV-1. As to conditions: same conditions (500 μM, 60 min). Here is the method:
as §1
Briefly, a mixture containing 5 μL of the 4× primer/DNA duplex solution and 5 μL of 4× polymerase solution was pre-incubated at 37° C. for 2 minutes to ensure formation a DNA polymerase/DNA duplex complex. Simultaneously, 2× solutions of dNTP to provide final concentrations of 100 μM, 200 μM, 500 μM and 1 mM were also pre-incubated at 37° C. for 2 minutes as well. The polymerase reaction in a total volume of 20 μL was initiated by addition of 10 μL of the 2× dNTP solution to the DNA polymerase/DNA duplex mixture. The reactions were run at 37° C. and aliquots (2.5 μL) were removed at specified time points and mixed with 10 μL of a quenching buffer containing 80% formamide, 2 mM EDTA, 1×TBE. Quenched reactions were analyzed by loading 2 μL of a reaction sample onto a 20% denaturing polyacrylamide:gel (19:1 acrylamide:bisacrylamide, 7M urea, 0.4 mm×30 cm×40 cm) made in 1×TBE buffer (90 mM Tris-borate, 2 mM EDTA, pH 8.3). The gel was pre-equilibrated for 2 hours before loading and the reactions were run along with a tracking dye marker containing bromophenol blue (BB) and xylene cyanol (XC) until the BB dye had run ⅔ of the total gel length. For visualization, gels were scanned using a Cyclone Phosphoroimager.

For experiment [2], the target named is T3, Therminator DNA polymerase (Thermococcus sp., UniProt Q56366, A485L/D141A/E143A).
T3 construct: purchased Westburg (NEB)
The experiment is described as follows: Single nucleotide incorporation by Therminator DNA polymerase. The class given is biochemical, (9° N-7) Thermococcus sp. The following applies: single nucleotide incorporation, P1/T1. Here is the method: In the case of Therminator DNA polymerase, the enzyme was obtained from Westburg (NEB) (2 U/μL) and the reactions were carried out in a 10× Thermopol reaction buffer containing 20 mM TRIS.HCl, 10 mM KCl, 2 mM MgSO4, 0.1% Triton X-100, pH 8.8. The final concentration of the Therminator DNA pol in the reaction mixture was 8.33×10^−4 U/μL. The polymerase reaction involving Therminator DNA polymerase or any other thermostable polymerase (Vent (exo^−), Taq DNA polymerase) was carried out in a similar way as the HIV RT reaction with some modifications. The dNTP solutions and the primer/template/DNA polymerase mixture solutions were topped with mineral oil (30-60 μL) and pre-incubated at 70° C. for 2 minutes. The polymerase reactions were performed at 70° C. as well.

In experiment [3] the target is T4, HIV-1 Reverse Transcriptase (Human immunodeficiency virus type 1 group M subtype B, UniProt P03366).
T4 construct: performed with the enzyme HIV-1 RT (Ambion, 10 U/μL stock solution); purchased Ambion
Nature of the experiment: Single incorporation into P1T1 by HIV-1 Reverse Transcriptase (Examples 6, 7, 9). The class given is biochemical. As to conditions: for conversion to an n+1 strand: 2 hours, 1 mM concentration. Here is the method:
HIV-1 Reverse Transcriptase serves, in the HIV-1 viral replication process, as a catalyst and uses deoxynucleotides as substrates. This polymerase is error-prone and thus has a high mutation rate. Here, we evaluated the capacity to incorporate a deoxyadenosine nucleoside into the primer-template complex P1T1 using HIV-1 RT, and some of the above described illustrative compounds of the invention, carrying different leaving groups, as substrates. The initial screening was carried out using a template with an overhang of one thymidine nucleotide followed by three non-pyrimidine bases (Table 1). Incorporation efficiency was analysed by the polyacrylamide gel-based single nucleotide incorporation assay.
End-labeled primer was annealed to its template by combining primer and template in a molar ratio of 1:2 and heating the mixture to 70° C. for 10 minutes followed by slow cooling to room temperature over a period of 1.5 hour. For the incorporation of 1, 2, 3, 4, 5 and 6, a series of 20 μL-batch reactions was performed with the enzyme HIV-1 RT (Ambion, 10 U/μL stock solution, specific activity 8.095 U/mg, concentration 1.2 mg/mL). The final mixture contained 125 nM primer template complex, RT buffer (250 mM Tris.HCl, 250 mM KCl, 50 mM MgCl2, 2.5 mM spermidine, 50 mM dithiothreitol (DTT); pH 8.3), 0.025 U/μL HIV-1 RT, and different concentrations of phosphoramidate or phosphodiester building blocks (1 mM, 500 μM, 200 μM and 100 μM respectively). In the case of the aromatic phosphate-modified nucleosides 23 and 24, the range of concentrations was limited to 1 mM. In the control reaction with the natural nucleotide, a 10 μM dATP concentration was used. The mixture was incubated at 37° C. and 2.5 μL aliquots were quenched after 5, 10, 20, 30, 60 and 120 minutes.

T3 sequence (Q56366 whole entry D141A/E143A/A485L): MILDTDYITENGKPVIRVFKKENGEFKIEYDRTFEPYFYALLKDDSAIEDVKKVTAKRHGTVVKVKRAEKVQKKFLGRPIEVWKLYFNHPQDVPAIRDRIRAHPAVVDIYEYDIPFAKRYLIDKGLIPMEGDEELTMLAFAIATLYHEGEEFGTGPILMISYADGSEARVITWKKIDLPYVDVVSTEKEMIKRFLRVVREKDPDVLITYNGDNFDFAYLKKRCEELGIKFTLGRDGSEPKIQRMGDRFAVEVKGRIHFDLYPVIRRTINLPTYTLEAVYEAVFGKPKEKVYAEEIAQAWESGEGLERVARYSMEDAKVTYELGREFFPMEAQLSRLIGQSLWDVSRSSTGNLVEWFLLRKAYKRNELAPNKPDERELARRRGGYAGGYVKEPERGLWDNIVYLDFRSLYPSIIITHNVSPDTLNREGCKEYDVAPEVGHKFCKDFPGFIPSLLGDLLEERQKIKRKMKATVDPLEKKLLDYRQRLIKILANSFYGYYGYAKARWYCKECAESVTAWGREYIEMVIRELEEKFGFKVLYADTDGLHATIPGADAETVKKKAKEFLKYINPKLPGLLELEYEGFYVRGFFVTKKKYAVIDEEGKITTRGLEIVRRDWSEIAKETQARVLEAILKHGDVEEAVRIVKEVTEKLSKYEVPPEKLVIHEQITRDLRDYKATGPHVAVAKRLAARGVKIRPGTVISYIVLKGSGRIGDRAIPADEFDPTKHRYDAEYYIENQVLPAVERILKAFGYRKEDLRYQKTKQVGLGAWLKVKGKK

For `Nc1ncnc2c1ncn2[C@H]1C[C@H](O)[C@@H](COP(=O)(O)NCC2CO2)O1` (stereo partly shown) [Compound 3, 2′-deoxy-adenosine-5′-glycidyl-phosphoramidate], on HIV RT, the “primer strand extension efficiency” value is “low efficiency”. Besides, in experiment [1], the “incorporation, fold less efficient than Asp-dAMP” value is listed as 6.5 fold. Besides, the “incorporation as Therminator DNA polymerase substrate” value in experiment [2] was “act effectively as alternative substrates”.
Consider `Nc1ncnc2c1ncn2[C@H]1C[C@H](O)[C@@H](COP(=O)(O)OCC(=O)O)O1` [GA-dAMP, 2′-deoxyadenosine-5′-(glycolic acid) phosphodiester], for which the “n+1 formation” value in experiment [3] (500 μM) is “up to 68%”.
For the compound `Nc1ncnc2c1ncn2[C@H]1C[C@H](O)[C@@H](COP(=O)(O)Nc2cc(C(=O)O)cc(C(=O)O)c2)O1` [Compound 23, 2′-deoxyadenosine-5′(5-aminoisophthalic acid) phosphoramidate], the “recognition as substrate” value in experiment [3] (1 mM) is recorded as “less well recognized as substrate”.
On to `Nc1ncnc2c1ncn2[C@H]1C[C@H](O)[C@@H](COP(=O)(O)Oc2ccc(C(=O)O)c(C(=O)O)c2)O1` [Compound 24, 2′-deoxyadenosine-5′-(4-hydroxy-phthalic acid) phosphodiester], for which, in experiment [3], the “conversion to an n+1 strand” value was 13%.
Regarding `Nc1ncnc2c1ncn2[C@H]1C[C@H](O)[C@@H](COP(=O)(O)Oc2cc(C(=O)O)cc(C(=O)O)c2)O1` [Compound 22, 2′-deoxyadenosine-5′-(5-hydroxy-isophthalic acid) phosphodiester], the “conversion to an n+1 strand” value in experiment [3] was 90-92%.

Values taken from patent US8242087B2, “Phosphate modified nucleosides useful as substrates for polymerases and as antiviral agents” (priority 2007, dated 2012).
